The record followed here is patent US20240174714A1, “TREATMENT OF SKIN DISORDERS” (priority 2021, published 2024).

Data set [1] relates to intracellular Leishmania donovani MHOM-ET-67/L82 amastigotes. The experiment in a line: In vitro antiprotozoal assay, intracellular amastigotes. It is filed as cell-based. Particulars: intracellular amastigotes; read-out: L.don.InMac IC50.
Protocol: (§3) The testing of the inventive compounds against Leishmania donovani (strain MHOM/ET/67/L82) was performed in 96 well plates at concentrations in serial dilutions. Tests were done in triplicate.
Data set [2] relates to axenic Leishmania donovani MHOM-ET-67/L82 amastigotes. The experiment in a line: In vitro antiprotozoal assay, axenic amastigotes. Particulars: axenic amastigotes; read-out: L.don.ax. IC50. It is filed as cell-based.
Protocol: as §3
The subject of a further data set is rat myoblast cells (L6). Briefly: Cytotoxicity assay (Alamar Blue) on L6-cells. It is filed as cell-based. The procedure: (§1) Tests were done in triplicate.
(§2) The plates were incubated for additional 2 h.

Data set [3] concerns Staphylococcus aureus ATCC BAA-1556, USA300 MRSA. The experiment in a line: microbe, parasite or virus in culture. The data set is classed as cell-based. Particulars: ATCC BAA-1556. The procedure:
Pre-formulated compound solution was diluted in 100% DMSO to prepare a 1.6 mg/mL working stock solution. […] The concentration range was 0.032 to 32 μg/mL.

The subject of data set [4] is Staphylococcus aureus ATCC 43300, MRSA. It is filed as cell-based. Particulars: ATCC 43300, 18 h. As to the method:
The antibacterial activity of inventive compounds was evaluated in duplicate in a further Minimum Inhibitory Concentration (MIC) assay.
Bacteria were cultured in Cation-adjusted Mueller Hinton broth (CAMHB) at 37° C. overnight. A sample of each culture was then diluted 40-fold in fresh broth and incubated at 37° C. for 1.5-3 h. The resultant mid-log phase cultures were diluted (CFU/mL measured by OD600), then added to each well of the compound containing plates, giving a cell density of 5×10^5 CFU/mL and a total volume of 50 μL. All the plates were covered and incubated at 37° C. for 18 h without shaking.
Samples were prepared in DMSO and serially diluted 2 fold 8 times. Each sample concentration was prepared in 384-well plates, non-binding surface plate (NBS; Corning 3640) for the bacterial strain ATCC 43300, MRSA. The final DMSO concentration was at a maximum of 0.5%.
Inhibition of bacterial growth was determined measuring absorbance at 600 nm (OD600), using a Tecan M1000 Pro monochromator plate reader. The percentage of growth inhibition was calculated for each well, using the negative control (media only) and positive control (bacteria without inhibitors) on the same plate as references. […] Vancomycin was used as positive bacterial inhibitor standards.

Data set [5] can be described thus: Cytotoxicity assay (Alamar Blue) on L6-cells. The data set is classed as cell-based, rat. Particulars: rat. As to the method:
as §1, §2
On the technique in general: The colour change of resazurin is a common sign of viable cells or microbes.

The subject of data set [6] is S. aureus (USA300 MRSA, BAA-1556). The experiment in a line: S. aureus dermal infection model in ICR mice, CFU/skin. It is filed as in vivo, Staphylococcus aureus. To be noted: 25 hours post inoculation; topical BID at 1 and 7 h post infection, 20 μL/mouse; 6027 1% in DMSO, fusidic acid 2%. The procedure:
Inoculum preparation. The testing strain, S. aureus USA300 MRSA (BAA-1556), was obtained from the frozen working stock and thawed at room temperature. A 0.2 mL aliquot was inoculated into 20 mL Brain-Heart Infusion broth (BHI) and then incubated at 35-37° C. with shaking (120 rpm) for 8 h. Bacterial cells in the 20 mL culture were pelleted by centrifugation at 3,500×g for 15 minutes and then re-suspended in 10 mL cold PBS (>8.0×10^9 CFU/mL, OD620 1.8-2.0). The culture was then diluted in PBS to the target inoculum of 1.0×10^7 CFU/mL. The actual bacterial counts were determined by plating dilutions onto nutrient agar (NA) plates followed by 20-24 h incubation and colony counting. The actual CFU counts were 1.04×10^7 CFU/mL.
S. aureus (USA300 MRSA, BAA-1556) dermal infection model. Groups of 5 female ICR mice weighing 24±2 g were used. Animals were anesthetized with etomidate-lipuro emulsion (20 mg/10 mL) at 20 mg/kg by intravenous (IV) injection, and then the fur on the back was removed by an electric shaver, and the epidermal layer was disrupted with an abrasive paper. Mice were inoculated topically (TOP) on the wound area with S. aureus (MRSA, BAA-1556) suspension, 5 μL/mouse. The target inoculation density was 5×10^4 CFU/mouse and the actual inoculum count 5.2×10^4 CFU/mouse. Animals were housed separately after infection. Compound 6027 in DMSO at 1% was administered topically (TOP) twice (BID) at 1 and 7 h post infection. Reference control agent, fusidic acid cream at 20 mg/gram (2%), was administered TOP BID at 1 and 7 h post infection. One infected and untreated group was sacrificed at 1 h after infection for the initial (baseline) bacterial counts. The dose volumes were 20 μL/mouse for all dosing groups.
Animals were sacrificed at 1 or 25 h after inoculation with CO2 asphyxiation. The infected skin samples of the wound infection (around 2 cm 2 areas) were excised and were homogenized in 1 mL PBS (pH 7.4) with a polytron homogenizer. A 0.1 mL aliquot of each homogenate was used for serial 10-fold dilutions and plated onto NA plates for bacterial enumeration. The bacterial counts (CFU/skin) in skin tissues were calculated and the percentage decrease in counts compared to the corresponding vehicle control (placebo) was calculated with the following formula: Decrease (%)=[(CFU/skin of placebo —CFU/skin of treatment)/(CFU/skin of placebo)]×100%.

For data set [7], the system named is Staphylococcus aureus NARSA VRS2. The experiment in a line: microbe, parasite or virus in culture. Particulars: Staphylococcus aureus, reference compound, read-out: MIC (Concurrent). The data set is classed as cell-based.
Data set [8] relates to Staphylococcus aureus ECL 2963646. The experiment in a line: microbe, parasite or virus in culture. It is filed as cell-based. To be noted: Staphylococcus aureus, ECL2963646, reference compound, read-out: MIC (Concurrent).
In data set [9] the test system is Staphylococcus aureus ATCC BAA-1556. Briefly: microbe, parasite or virus in culture. The data set is classed as cell-based. Particulars: Staphylococcus aureus, ATCCBAA1556; reference compound; ATCC BAA-1556, Methicillin resistant; read-out: MIC (Concurrent).
Data set [10] deals with Staphylococcus aureus NARSA NRS22. Briefly: microbe, parasite or virus in culture. The data set is classed as cell-based. To be noted: Staphylococcus aureus, reference compound, read-out: MIC (Concurrent).

Converted amounts (≈) assume the structure as drawn. Like-named read-outs stand apart in the source and are kept apart here. Square brackets hold non-standard residues; d marks the D form. Peptide text beside a SMILES is read from it. * marks the point of attachment. NH((S)CH(Me)CH2NMe2) = C[C@@H](CN(C)C)N*; NH(1-CH2NMe2-cBu) = CN(C)CC1(N*)CCC1; Gly(octyl) = CCCCCCCC[C@H](N)C(=O)O; Oxazole4CO(2-Me) = Cc1nc(C(=O)*)co1; hCha = N[C@@H](CCC1CCCCC1)C(=O)O; X8 = O=C(c1coc(-c2ccccc2)n1)*; Aib = CC(C)(N)C(=O)O; βAla = NCCC(=O)O

Usually IC50 stands for the midpoint of a concentration-inhibition curve. `CCCCCCCC[C@H](NC(=O)[C@@H]1CCCN1C(=O)c1coc(-c2ccccc2)n1)C(=O)N[C@@H](CC(C)C)C(=O)NC(C)(C)C(=O)N[C@@H](CC(C)C)C(=O)N[C@@H](CC(C)C)C(=O)NC(C)(C)C(=O)NC(C)(C)C(=O)NCCC(=O)N[C@@H](C)CN(C)C` [Compound 5906, (2S)-N-[(1S)-1-[(1-{[(1S)-1-{[(1S)-1-{[1-({1-[(2-{[(2S)-1-(dimethylamino)propan-2-yl]carbamoyl}ethyl)carbamoyl]-1-methylethyl}carbamoyl)-1-methylethyl]carbamoyl}-3-methylbutyl]carbamoyl}-3-methylbutyl]carbamoyl}-1-methylethyl)carbamoyl]-3-methylbutyl]-2-{[(2S)-1-(2-phenyl-1,3-oxazole-4-carbonyl)pyrrolidin-2-yl]formamido}decanamide] (X8-P[Gly(octyl)]L[Aib]LL[Aib][Aib][βAla]-{NH((S)CH(Me)CH2NMe2)}): the results for the IC50 (in data set [1]; in data set [2]; in the data set on rat myoblast cells (L6)) were 14.1 nM, 3.7 nM and 445 nM, respectively.

`Cc1nc(C(=O)N2CCC[C@H]2C(=O)N[C@@H](CCC2CCCCC2)C(=O)N[C@@H](CC(C)C)C(=O)NC(C)(C)C(=O)N[C@@H](CC(C)C)C(=O)N[C@@H](CC(C)C)C(=O)NC(C)(C)C(=O)NC(C)(C)C(=O)NCCC(=O)NC2(CN(C)C)CCC2)co1` [Compound 6025, (2S)-2-[(2S)-4-cyclohexyl-2-{[(2S)-1-(2-methyl-1,3-oxazole-4-carbonyl)pyrrolidin-2-yl]formamido}butanamido]-N-(1-{[(1S)-1-{[(1S)-1-({1-[(1-{[2-({1-[(dimethylamino)methyl]cyclobutyl}carbamoyl)ethyl]carbamoyl}-1-methylethyl)carbamoyl]-1-methylethyl}carbamoyl)-3-methylbutyl]carbamoyl}-3-methylbutyl]carbamoyl}-1-methylethyl)-4-methylpentanamide] ({Oxazole4CO(2-Me)}-P[hCha]L[Aib]LL[Aib][Aib][βAla]-{NH(1-CH2NMe2-cBu)}): the IC50 in [1] was determined as 41.1 nM; in data set [2] it was 9.9 nM; in the data set with rat myoblast cells (L6) it was 1910 nM. In addition, the “MIC” value in data set [3] is 4 µg/mL (≈ 3.43 µM).

As to `Cc1nc(C(=O)N2CCC[C@H]2C(=O)N[C@@H](CC2CCCCC2)C(=O)N[C@@H](CC(C)C)C(=O)NC(C)(C)C(=O)N[C@@H](CC(C)C)C(=O)N[C@@H](CC(C)C)C(=O)NC(C)(C)C(=O)NC(C)(C)C(=O)NCCC(=O)NC2(CN(C)C)CCC2)co1` [Compound 7059, (2S)-2-[(2S)-3-cyclohexyl-2-{[(2S)-1-(2-methyl-1,3-oxazole-4-carbonyl)pyrrolidin-2-yl]formamido}propanamido]-N-(1-{[(1S)-1-{[(1S)-1-({1-[(1-{[2-({1-[(dimethylamino)methyl]cyclobutyl}carbamoyl)ethyl]carbamoyl}-1-methylethyl)carbamoyl]-1-methylethyl}carbamoyl)-3-methylbutyl]carbamoyl}-3-methylbutyl]carbamoyl}-1-methylethyl)-4-methylpentanamide] (HELM PEPTIDE1{[Cc1nc(C(=O)[*:2])co1].P.[Cha].L.[Aib].L.L.[Aib].[Aib].[bAla].[CN(C)CC1(N[*:1])CCC1]}$$$$V2.0), in data set [2], the IC50 is 1.3 nM. The “MIC” value in [3] worked out at 4 µg/mL (≈ 3.47 µM); in data set [4] it was 32 µg/mL (≈ 27.7 µM). The compound also returned an IC50 at 68 h in data set [5] of 6850 nM.

As for `CC(=O)O[C@H]1C[C@@]2(C)[C@@H](C[C@@H](O)[C@H]3[C@@]4(C)CC[C@@H](O)[C@@H](C)[C@@H]4CC[C@@]32C)/C1=C(\CCC=C(C)C)C(=O)O` [Fusidic acid, fusidic acid, reference compound], in data set [6], the “Decrease (%) in CFU/skin vs vehicle control” value worked out at 99% and the “LogCFU/skin after 25 hours (Standard error of the mean − SEM)” value was 4.82 (0.26) LogCFU/skin.

For the compound `CC(=O)NC[C@H]1CN(c2ccc(N3CCOCC3)c(F)c2)C(=O)O1` [Linezolid, reference compound], the MIC in data set [7], in [8], in data set [9] and in [10] was 2 µg/mL (≈ 5.93 µM) each time.

Take `COc1cc([C@@H]2c3cc4c(cc3[C@H](O)[C@H]3COC(=O)[C@H]23)OCO4)cc(OC)c1OC` [Podophyllotoxin, reference compound]: the IC50 in the data set with rat myoblast cells (L6) (Rattus norvegicus, Myoblast, read-out: IC50 Concurrent (nM)) stood at 19.3 nM; with rat myoblast cells (L6) (Rattus norvegicus, Myoblast, read-out: IC50 of reference drug), 50 ± 10 nM.
